Assay results reported in patent US9421208B2, “Methods for the treatment of solid tumors” (Pharmacyclics LLC, priority 2013, dated 2016).
“Also recorded” adds a separate entry of the source.

Test system: lung tumors in Grg1 transgenic mice
Experiment: Tumor development in Grg1 transgenic mouse model of non-small cell lung cancer
Type: in vivo
Settings: for tumors visible on whole lung lobes: 3 month mice after 4 weeks of treatment (FIG. 8); for average number of surface tumors per mouse: abexinostat 12 mg/kg BID i.p., ibrutinib ~22 mg/kg/day in drinking water; for tumor histology in lung tissue sections: 6 month mice after 4 weeks of treatment; for tumors visible on whole left lung lobes: 6 month mice after 4 weeks of treatment (FIG. 7); for average number of large tumors (over 1 mm in diameter) per mouse: 6 month samples, tissue sections of left lung lobe
Description: The aim of the experiment is to evaluate the effect of two drugs on tumor development in a mouse model of non-small cell lung cancer.
Grg1 transgenic mice were used to evaluate the drugs. Grg1 transgenic mice overexpress the Groucho-related gene 1 (Grg1). The mice develop lung tumors that resemble human non-small cell lung cancer. Tumors initiate at 1 month of age and progress to invasive adenocarcinoma by 8 months of age. The drugs were administered to 2 month-old mice or to 5 month-old mice, and mice were treated for 4 weeks. The former group is referred to as the 3 month samples and the latter as the 6 month samples.
Mice were bred to generate double transgenic (Grg1/Cre recombinase) mice on a CD1 background. Four groups of female double transgenic mice were established:
At least 8 mice in each group were treated at 2 months old and 8 mice in each group were treated at 5 months old. Treatments lasted 4 weeks, and mice were sacrificed at 3 months and 6 months. Therefore samples are referred to as 3 month samples or 6 month samples.
Abexinostat was administered by intraperitoneal (i.p.) injection, twice per day for five days each week. Mice were weighed and injected with 6 μl per gram body weight of a 1 mg/ml solution. The dosage was 12 mg/kg BID.
Mice were treated for 4 weeks. After treatment, mice were euthanized and lung tissue was examined.
For quantitation of tumors, the total visible tumors on the lung surface were counted using a dissecting microscope. In addition, the left lung lobe was fixed in 4% PFA, paraffin-embedded and 5 μm sections were taken for 100 μm at two levels. The first level began 30 μm below the lung surface and the second level began 130 μm below the lung surface. Alternate slides were H&E stained, and tumors were detected and counted using a dissecting microscope. Tumor diameter was measured using an inverted microscope and reticule.

[1] = 3 month samples: treated 4 weeks from 2 months
[2] = 6 month samples: treated 4 weeks from 5 months

SMILES: CN(C)Cc1c(C(=O)NCCOc2ccc(C(=O)NO)cc2)oc2ccccc12 [Abexinostat, 3-[(dimethylamino)methyl]-N-{2-[4-(hydroxycarbamoyl)phenoxy]ethyl}-1-benzofuran-2-carboxamide]
- tumors visible on whole lung lobes: one small tumor is visible
- average number of surface tumors per mouse [1]: 3.0
- tumor histology in lung tissue sections: high number of apoptotic cells; also recorded: lymphocyte infiltration, necrosis and large areas with apoptotic cells
- tumors visible on whole left lung lobes: medium and small tumors are visible
- average number of large tumors (over 1 mm in diameter) per mouse: 0.5
- average number of surface tumors per mouse [2]: 4.6

SMILES: C=CC(=O)N1CCC[C@@H](n2nc(-c3ccc(Oc4ccccc4)cc3)c3c(N)ncnc32)C1 [Ibrutinib, (R)-1-(3-(4-amino-3-(4-phenoxyphenyl)-1H-pyrazolo[3,4-d]pyrimidin-1-yl)piperidin-1-yl)prop-2-en-1-one]
- tumors visible on whole lung lobes: one small tumor is visible
- average number of surface tumors per mouse [1]: 2.6
- tumor histology in lung tissue sections: lack the high number of apoptotic macrophages; also recorded: less tumor necrosis than the control samples; also recorded: lymphocyte infiltration but not the apoptotic macrophages seen in the control and in Abexinostat-treated mice
- tumors visible on whole left lung lobes: medium and small tumors are visible
- average number of large tumors (over 1 mm in diameter) per mouse: 0.5
- average number of surface tumors per mouse [2]: 7.6
- tumor diameter in 6 month sections (6 month sections (FIG. 9)): no small tumors in Ib-treated sections, just one large tumor
